How the values were obtained:
BGC-823 (human) = assay: Cytotoxicity against human BGC823 cells after 48 hrs by MTT assay; conditions: BGC-823, 48 h
HL-60 (human) = assay: Cytotoxicity against human HL60 cells after 48 hrs by MTT assay; conditions: HL-60, 48 h

| Compound | IC50 (BGC-823 (human)) | IC50 (HL-60 (human)) |
| --- | --- | --- |
| C/C(=C\CC[C@](C)(O)[C@H]1CC[C@]2(C)[C@H]1C(=O)C[C@@H]1[C@@]3(C)CC[C@H](O)C(C)(C)[C@@H]3[C@@H](O)C[C@]12C)CO | > 100 µM | 16.3 µM |
| CC(C)=CCC[C@](C)(O)[C@H]1CC[C@]2(C)[C@@H]1[C@H](O)C[C@@H]1[C@@]3(C)CC[C@H](O)C(C)(C)[C@@H]3[C@@H](O)C[C@]12C |  | 16 µM |
| C/C(=C\CC[C@](C)(O)[C@H]1CC[C@]2(C)[C@H]1[C@H](O)C[C@@H]1[C@@]3(C)CC[C@H](O)C(C)(C)[C@@H]3[C@@H](O)C[C@]12C)CO | > 100 µM | 12.3 µM |
| C/C(=C/CC[C@](C)(O)[C@H]1CC[C@]2(C)[C@H]1C(=O)C[C@@H]1[C@@]3(C)CC[C@H](O)C(C)(C)[C@@H]3[C@@H](O)C[C@]12C)CO | > 100 µM | 10.8 µM |
| CC(C)=CCC[C@](C)(O)[C@H]1C[C@H](O)[C@]2(C)[C@H]1C(=O)C[C@@H]1[C@@]3(C)CC[C@H](O)C(C)(C)[C@@H]3[C@@H](O)C[C@]12C | > 100 µM | 15 µM |

— ChEMBL document CHEMBL1158752, “Microbial transformation of 20(S)-protopanaxatriol by Mucor spinosus” (J Nat Prod, 2005)
